# Assay results published in US9296757B2, “Substituted benzothienopyrimidines” (BAYER PHARMA AKTIENGESELLSCHAFT, priority 2012, dated 2016).
# Target: human full-length MKNK1 (Homo sapiens (Human), UniProt Q9BUB5, T344D)
# Assay: MKNK1 kinase high ATP assay (TR-FRET)
# Assay type: biochemical
# Conditions: high ATP (2 mM final), 15 min preincubation with enzyme
# Description: MKNK1-inhibitory activity at high ATP of compounds of the present invention after their preincubation with MKNK1 was quantified employing the TR-FRET-based MKNK1 high ATP assay as described in the following paragraphs.
# A recombinant fusion protein of Glutathione-S-Transferase (GST, N-terminally) and human full-length MKNK1 (amino acids 1-424 and T344D of accession number BAA 19885.1), expressed in insect cells using baculovirus expression system and purified via glutathione sepharose affinity chromatography, was purchased from Carna Biosciences (product no 02-145) and used as enzyme. As substrate for the kinase reaction the biotinylated peptide biotin-Ahx-IKKRKLTRRKSLKG (C-terminus in amide form) was used, which can be purchased e.g. from the company Biosyntan (Berlin-Buch, Germany).
# For the assay 50 nL of a 100 fold concentrated solution of the test compound in DMSO was pipetted into a black low volume 384 well microtiter plate (Greiner Bio-One, Frickenhausen, Germany), 2 μL of a solution of MKNK1 in aqueous assay buffer [50 mM HEPES pH 7.5, 5 mM MgCl2, 1.0 mM dithiothreitol, 0.005% (v/v) Nonidet-P40 (Sigma)] was added and the mixture was incubated for 15 min at 22° C. to allow pre-binding of the test compounds to the enzyme before the start of the kinase reaction. Then the kinase reaction was started by the addition of 3 μL of a solution of adenosine-tri-phosphate (ATP, 3.3 mM=>final conc. in the 5 μL assay volume is 2 mM) and substrate (0.1 μM=>final conc. in the 5 μL assay volume is 0.06 μM) in assay buffer and the resulting mixture was incubated for a reaction time of 30 min at 22° C. The concentration of MKNK1 was adjusted depending of the activity of the enzyme lot and was chosen appropriate to have the assay in the linear range, typical concentrations were in the range of 0.003 μg/mL. The reaction was stopped by the addition of 5 μL of a solution of TR-FRET detection reagents (5 nM streptavidine-XL665 [Cisbio Bioassays, Codolet, France] and 1 nM anti-ribosomal protein S6 (pSer236)-antibody from Invitrogen [#44921G] and 1 nM LANCE EU-W1024 labeled ProteinG [Perkin-Elmer, product no. AD0071]) in an aqueous EDTA-solution (100 mM EDTA, 0.1% (w/v) bovine serum albumin in 50 mM HEPES pH 7.5).
# The resulting mixture was incubated for 1 h at 22° C. to allow the formation of complex between the phosphorylated biotinylated peptide and the detection reagents. Subsequently the amount of phosphorylated substrate was evaluated by measurement of the resonance energy transfer from the Eu-chelate to the streptavidine-XL. Therefore, the fluorescence emissions at 620 nm and 665 nm after excitation at 350 nm were measured in a TR-FRET reader, e.g. a Rubystar (BMG Labtechnologies, Offenburg, Germany) or a Viewlux (Perkin-Elmer). The ratio of the emissions at 665 nm and at […] was taken as the measure for the amount of phosphorylated substrate. The data were normalised (enzyme reaction without inhibitor=0% inhibition, all other assay components but no enzyme=100% inhibition).
# human full-length MKNK1, sequence (Q9BUB5 other isoform, or with tags, fused parts or gaps T344D): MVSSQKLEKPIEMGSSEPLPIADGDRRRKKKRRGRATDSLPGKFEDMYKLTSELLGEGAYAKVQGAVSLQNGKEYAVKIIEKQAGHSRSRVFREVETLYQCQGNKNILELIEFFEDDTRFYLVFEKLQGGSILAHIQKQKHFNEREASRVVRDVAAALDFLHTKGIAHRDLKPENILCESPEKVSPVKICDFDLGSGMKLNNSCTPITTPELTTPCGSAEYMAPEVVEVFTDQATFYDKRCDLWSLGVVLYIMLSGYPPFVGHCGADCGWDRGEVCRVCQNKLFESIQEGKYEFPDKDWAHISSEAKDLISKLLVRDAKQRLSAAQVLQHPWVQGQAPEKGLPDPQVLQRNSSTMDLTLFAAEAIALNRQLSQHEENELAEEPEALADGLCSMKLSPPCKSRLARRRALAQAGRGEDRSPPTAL
row,IC50 [nM],SMILES
1,19,"CCCN(CCOC)C(=O)C1CCc2c(sc3ncnc(Nc4ccc5[nH]c(=O)sc5c4)c23)C1 (racemic) [Example 69, (RS)-N-(2-methoxyethyl)-4-[(2-oxo-2,3-dihydro-1,3-benzothiazol-6-yl)amino]-N-propyl-5,6,7,8-tetrahydro[1]benzothieno[2,3-d]pyrimidine-7-carboxamide]"
2,52,"O=C(C1CCc2c(sc3ncnc(Nc4ccc5[nH]c(=O)sc5c4)c23)C1)N1CCCC(O)C1 (racemic) [Example 53, 6-{[(7RS)-7-{[(3RS)-3-hydroxypiperidin-1-yl]carbonyl}-5,6,7,8-tetrahydro[1]benzothieno[2,3-d]pyrimidin-4-yl]amino}-1,3-benzothiazol-2(3H)-one]"
3,32,"N#CC1CCCN(C(=O)C2CCc3c(sc4ncnc(Nc5ccc6[nH]c(=O)sc6c5)c34)C2)C1 (racemic) [Example 75, (3RS)-1-({(7RS)-4-[(2-oxo-2,3-dihydro-1,3-benzothiazol-6-yl)amino]-5,6,7,8-tetrahydro[1]benzothieno[2,3-d]pyrimidin-7-yl}carbonyl)piperidine-3-carbonitrile]"
4,1,"CCN(CCOC)C(=O)C1CCc2c(sc3ncnc(Nc4cc5sc(=O)[nH]c5cc4OC)c23)C1 (racemic) [Example 90, (RS)—N-Ethyl-N-(2-methoxyethyl)-4-[(5-methoxy-2-oxo-2,3-dihydro-1,3-benzothiazol-6-yl)amino]-5,6,7,8-tetrahydro[1]benzothieno[2,3-d]pyrimidine-7-carboxamide]"

# Second part, the compound before the results:
row,SMILES,IC50 [nM]
1,"CC(C)CNC(=O)C1CCc2c(sc3ncnc(Nc4ccc5[nH]c(=O)sc5c4)c23)C1 (racemic) [Example 6, (RS)—N-Isobutyl-4-[(2-oxo-2,3-dihydro-1,3-benzothiazol-6-yl)amino]-5,6,7,8-tetrahydro[1]benzothieno[2,3-d]pyrimidine-7-carboxamide]",40
2,"CC1CCN(C(=O)C2CCc3c(sc4ncnc(Nc5ccc6[nH]c(=O)sc6c5)c34)C2)CC1 (racemic) [Example 50, (RS)-6-({7-[(4-methylpiperidin-1-yl)carbonyl]-5,6,7,8-tetrahydro[1]benzothieno[2,3-d]pyrimidin-4-yl}amino)-1,3-benzothiazol-2(3H)-one]",43
3,"NCC1CCc2c(sc3ncnc(Nc4ccc5[nH]c(=O)sc5c4)c23)C1 (racemic) [Example 20, (RS)-6-{[7-(Aminomethyl)-5,6,7,8-tetrahydro[1]benzothieno[2,3-d]pyrimidin-4-yl]amino}-1,3-benzothiazol-2(3H)-one]",103
4,"CN(CC#N)C(=O)C1CCc2c(sc3ncnc(Nc4ccc5[nH]c(=O)sc5c4)c23)C1 (racemic) [Example 49, (RS)-N-(cyanomethyl)-N-methyl-4-[(2-oxo-2,3-dihydro-1,3-benzothiazol-6-yl)amino]-5,6,7,8-tetrahydro[1]benzothieno[2,3-d]pyrimidine-7-carboxamide]",45
5,"CC(C)(C)OC(=O)N[C@@H](CCO)C(=O)NCC1CCc2c(sc3ncnc(Nc4ccc5[nH]c(=O)sc5c4)c23)C1 (mixture of isomers) [Example 27, tert-Butyl {(2R)-4-hydroxy-1-oxo-1-[({(7RS)-4-[(2-oxo-2,3-dihydro-1,3-benzothiazol-6-yl)amino]-5,6,7,8-tetrahydro[1]benzothieno[2,3-d]pyrimidin-7-yl}methyl)amino]butan-2-yl}carbamate]",100
6,"CCOC(=O)C1CCc2c(sc3ncnc(Nc4ccc5[nH]c(=O)sc5c4)c23)C1 (racemic) [Example 1, (RS)-Ethyl 4-[(2-oxo-2,3-dihydro-1,3-benzothiazol-6-yl)amino]-5,6,7,8-tetrahydro[1]benzothieno[2,3-d]pyrimidine-7-carboxylate]",47
7,"N[C@@H](CCO)C(=O)NCC1CCc2c(sc3ncnc(Nc4ccc5[nH]c(=O)sc5c4)c23)C1 (mixture of isomers) [Example 32, N-({4-[(2-Oxo-2,3-dihydro-1,3-benzothiazol-6-yl)amino]-5,6,7,8-tetrahydro[1]benzothieno[2,3-d]pyrimidin-7-(RS)-yl}methyl)-L-homoserinamide]",92
